Measured values: ChEMBL document CHEMBL5244235, “Diarylpentanoids with antitumor activity: A critical review of structure-activity relationship studies” (Eur J Med Chem, 2020)
“And” between values parts separate entries of the source, which are not always exact repeats. Equal entries are not always repeated. One block for each compound: values may come before it.

Legend:
[1] = test system: B16; assay: Antiproliferative activity against mouse B16 cells assessed as cell growth inhibition measured after 72 hrs by MTT assay; type: functional, cell-based; conditions: B16, 72 h
[2] = test system: L1210; assay: Antiproliferative activity against mouse L1210 cells assessed as cell growth inhibition measured after 72 hrs by MTT assay; type: functional, cell-based; conditions: L1210, 72 h
[3] = test system: NCI-H460; assay: Antiproliferative activity against human NCI-H460 cells assessed as cell growth inhibition measured after 24 hrs by MTT assay; type: functional, cell-based; conditions: NCI-H460, 24 h
[4] = test system: A549; assay: Antiproliferative activity against human A549 cells assessed as cell growth inhibition measured after 24 hrs by MTT assay; type: functional, cell-based; conditions: A549, 24 h
[5] = test system: AGS; assay: Antiproliferative activity against human AGS cells assessed as cell growth inhibition measured upto 72 hrs by MTT assay; type: functional, cell-based
[6] = test system: KYSE-30; assay: Antiproliferative activity against human KYSE-30 cells assessed as cell growth inhibition measured upto 72 hrs by MTT assay; type: functional, cell-based; conditions: KYSE-30, 72 h
[7] = test system: B16; assay: Antiproliferative activity against mouse B16 cells assessed as cell growth inhibition; type: functional, cell-based
[8] = test system: L1210; assay: Antiproliferative activity against mouse L1210 cells assessed as inhibition of cell growth; type: functional, cell-based
[9] = test system: A2780; assay: Antiproliferative activity against human A2780 cells assessed as cell viability at 10 uM measured after 24 hrs by MTT assay relative to control; type: functional; conditions: read-out: Activity
[10] = test system: MDA-MB-231; assay: Antiproliferative activity against human MDA-MB-231 cells assessed as cell growth inhibition; type: functional, cell-based
[11] = test system: HCC1419; assay: Antiproliferative activity against human HCC1419 cells assessed as cell growth inhibition; type: functional, cell-based
[12] = test system: MCF7; assay: Antiproliferative activity against human MCF7 cells assessed as cell growth inhibition; type: functional, cell-based
[13] = Antiproliferative activity against human MCF-10A cells assessed as cell growth inhibition; type: toxicity, cell-based
[14] = test system: MDA-MB-231; assay: Antiproliferative activity against lung metastasis variant of human MDA-MB-231 cells assessed as cell growth inhibition; type: functional, cell-based
[15] = Antiproliferative activity against human MRC9 cells assessed as cell growth inhibition measured after 72 hrs by MTT assay; type: functional, cell-based; conditions: MRC9, 72 h
[16] = test system: MDA-MB-231; assay: Growth inhibition of human MDA-MB-231 cells measured after 72 hrs by microplate reader analysis; type: functional
[17] = test system: RPMI-7951; assay: Growth inhibition of human RPMI-7951 cells measured after 72 hrs by microplate reader analysis; type: functional, cell-based; conditions: RPMI-7951, time 72 hrs
[18] = Cytotoxicity against HUVEC cells assessed as cell growth inhibition by anti-angiogenisis screening assay; type: toxicity, cell-based; conditions: human
[19] = Cytotoxicity against mouse MS-1 cells assessed as cell growth inhibition by anti-angiogenisis screening assay; type: toxicity, cell-based
[20] = Cytotoxicity against mouse SVR cells assessed as cell growth inhibition by anti-angiogenisis screening assay; type: toxicity, cell-based
[21] = test system: HeLa; assay: Antiproliferative activity against human HeLa cells assessed as cell growth inhibition measured after 72 hrs by MTT assay; type: functional, cell-based; conditions: hela
[22] = test system: Ca-Ski; assay: Antiproliferative activity against human Ca-Ski cells assessed as cell growth inhibition measured after 72 hrs by MTT assay; type: functional, cell-based
[23] = test system: GCIY; assay: Antiproliferative activity against human GCIY cells assessed as cell growth inhibition measured after 72 hrs; type: functional, cell-based
[24] = Antiproliferative activity against human SH-10-TC cells assessed as cell growth inhibition measured after 72 hrs; type: functional, cell-based
[25] = test system: HCT-116; assay: Antiproliferative activity against human HCT-116 cells assessed as cell growth inhibition measured after 72 hrs; type: functional, cell-based; conditions: HCT-116, 72 h
[26] = test system: DLD-1; assay: Antiproliferative activity against human DLD-1 cells assessed as cell growth inhibition measured after 72 hrs; type: functional, cell-based; conditions: DLD-1, 72 h
[27] = test system: A549; assay: Antiproliferative activity against human A549 cells assessed as cell growth inhibition measured after 72 hrs; type: functional, cell-based; conditions: A549, 72 h
[28] = test system: ACHN; assay: Antiproliferative activity against human ACHN cells assessed as cell growth inhibition measured after 72 hrs; type: functional, cell-based
[29] = test system: Huh-7; assay: Antiproliferative activity against human Huh-7 cells assessed as cell growth inhibition measured after 72 hrs; type: functional, cell-based; conditions: Huh-7, 72 h
[30] = Antiproliferative activity against human OVK18 cells assessed as cell growth inhibition measured after 72 hrs; type: functional, cell-based; conditions: OVK18, 72 h
[31] = test system: MCF7; assay: Antiproliferative activity against human MCF7 cells assessed as cell growth inhibition measured after 72 hrs; type: functional, cell-based; conditions: MCF7, 72 h
[32] = test system: A-431; assay: Antiproliferative activity against human A-431 cells assessed as cell growth inhibition measured after 72 hrs; type: functional, cell-based; conditions: A-431, 72 h
[33] = test system: HuCCT-1; assay: Antiproliferative activity against human HuCCT-1 cells assessed as cell growth inhibition measured after 72 hrs; type: functional, cell-based; conditions: HuCCT-1, 72 h
[34] = test system: 8505C; assay: Antiproliferative activity against human 8505C cells assessed as cell growth inhibition measured after 72 hrs; type: functional, cell-based
[35] = test system: G-361; assay: Antiproliferative activity against human G-361 cells assessed as cell growth inhibition measured after 72 hrs; type: functional, cell-based; conditions: G-361, 72 h
[36] = test system: PC-3; assay: Antiproliferative activity against human PC-3 cells assessed as cell growth inhibition measured after 72 hrs; type: functional, cell-based; conditions: PC-3, 72 h
[37] = Antiproliferative activity against human PK-1 cells assessed as cell growth inhibition measured after 72 hrs; type: functional, cell-based; conditions: PK-1, 72 h
[38] = test system: DLD-1; assay: Antiproliferative activity against human DLD-1 cells assessed as cell growth inhibition measured after 96 hrs; type: functional, cell-based; conditions: DLD-1, 96 h
[39] = test system: HUVEC; assay: Anti-angiogenesis activity in HUVEC cells; type: functional, cell-based; conditions: Homo sapiens

- IC50 [3]: 2.3 µM
- IC50 [4]: 5.3 µM
Compound: CCN1C/C(=C\c2ccc(OC)c(OC)c2OC)C(=O)/C(=C/c2ccc(OC)c(OC)c2OC)C1

- IC50 [7]: 0.2 µM
- IC50 [8]: 0.3 µM
Compound: COc1cc(/C=C2\CNC/C(=C\c3cc(OC)cc(OC)c3OC)C2=O)c(OC)c(OC)c1

- IC50 [10]: 0.72 µM
- IC50 [11]: 1.46 µM
- IC50 [12]: 1.64 µM
- IC50 [14]: 0.53 µM
Compound: CCN(CC)CCOc1cccc(C(=O)N2C/C(=C\c3ccccc3)C(=O)/C(=C/c3ccccc3)C2)c1
- IC50 [13]: 41 µM

- IC50 [25]: > 50 µM
- IC50 [26]: > 50 µM
- IC50 [27]: > 50 µM
- IC50 [28]: > 50 µM
- IC50 [29]: > 50 µM
- IC50 [31]: > 50 µM
- IC50 [32]: > 50 µM
- IC50 [36]: > 50 µM
- IC50 [38]: 8 µM
Compound: C=C1CC2CC(C1)/C(=C\c1ccc(OC)c(OC)c1)C(=O)/C2=C/c1ccc(OC)c(OC)c1
- IC50 [23]: > 50 µM
- IC50 [24]: > 50 µM
- IC50 [30]: > 50 µM
- IC50 [33]: > 50 µM
- IC50 [34]: > 50 µM
- IC50 [35]: > 50 µM
- IC50 [37]: > 50 µM

- IC50 [3]: 5.3 µM
- IC50 [4]: 32.5 µM
Compound: COc1cc(/C=C/C(=O)CC(=O)/C=C/c2ccc(O)c(OC)c2)ccc1O [CURCUMIN]

Further lines, the compound ahead of its results:

Compound: COc1cc(/C=C2\CC(c3ccccc3)C/C(=C\c3cc(OC)c(OC)c(OC)c3)C2=O)cc(OC)c1OC (stereo not drawn)
- IC50 [1]: 0.51 µM
- IC50 [2]: 0.12 µM

Compound: C#CCOc1ccc(/C=C2\CCC/C(=C\c3ccc(OCC#C)c(OC)c3)C2=O)cc1OC
- IC50 [5]: 0.56 µM
- IC50 [6]: 3.6 µM

Compound: CCOc1ccc(/C=C2\CCC/C(=C\c3ccc(OCC)c(OC)c3)C2=O)cc1OC
- IC50 [5]: 0.72 µM
- IC50 [6]: 3.4 µM

Compound: CC1(C)C=C(CN2C/C(=C\c3ccc(F)cc3)C(=O)/C(=C/c3ccc(F)cc3)C2)C(C)(C)N1O
- viability at 10 µM [9]: 20%

Compound: O=C1/C(=C/c2ccc([N+](=O)[O-])cc2)CC(c2ccccc2)C/C1=C\c1ccc([N+](=O)[O-])cc1 (stereo not drawn)
- IC50 [1]: 1.6 µM
- IC50 [2]: 0.35 µM

Compound: C#CCOc1ccc(/C=C2\CCC/C(=C\c3ccc(OCC#C)cc3)C2=O)cc1
- IC50 [5]: 0.72 µM
- IC50 [6]: 3.4 µM

Compound: O=C(/C=C/c1ccccc1O)/C=C/c1ccccc1O
- EC50 [15]: 4.6 µM
- GI50 [16]: 1 µM
- GI50 [17]: 2.3 µM
- GI50 [18]: 1.8 µM
- GI50 [19]: 1.8 µM
- GI50 [20]: 1.8 µM
- EC50 [21]: 1.03 µM and 2.6 µM
- EC50 [22]: 1.03 µM

Compound: COc1cc(/C=C/C(=O)/C=C/c2cc(OC)c(OC)c(OC)c2)cc(OC)c1O
- IC50 [23]: 1 µM
- IC50 [24]: 1 µM
- IC50 [25]: 1 µM
- IC50 [26]: 1 µM
- IC50 [27]: 1 µM
- IC50 [28]: 1 µM
- IC50 [29]: 1 µM
- IC50 [30]: 1 µM
- IC50 [31]: 1 µM
- IC50 [32]: 1 µM
- IC50 [33]: 1 µM
- IC50 [34]: 1 µM
- IC50 [35]: 1 µM
- IC50 [36]: 1 µM
- IC50 [37]: 1 µM
- IC50 [39]: 0.4 µM

Compound: O=C1/C(=C/c2ccccc2)CCC/C1=C\c1ccccc1 [2,6-DIBENZYLIDENECYCLOHEXANONE]
- IC50 [23]: > 50 µM
- IC50 [24]: > 50 µM
- IC50 [25]: > 50 µM
- IC50 [26]: > 50 µM
- IC50 [27]: > 50 µM
- IC50 [28]: > 50 µM
- IC50 [29]: > 50 µM
- IC50 [30]: > 50 µM
- IC50 [31]: > 50 µM
- IC50 [32]: > 50 µM
- IC50 [33]: > 50 µM
- IC50 [34]: > 50 µM
- IC50 [35]: > 50 µM
- IC50 [36]: > 50 µM
- IC50 [37]: > 50 µM
- IC50 [38]: 3 µM
